Laboratory results taken from patent US20100016232A1, “Treatment Of Inflammatory Diseases With Mammal Beta Defensins” (Novozymes A/S, priority 2008, published 2010).
Marks after values point to notes of the source that are not given here.

Experiments:
Format in all cases: in vivo
[1] = tested on: DSS-induced colitis in the mouse; experiment: 10-day DSS-induced colitis, colon histological score (Example 5); settings: 1 mg/kg p.o. daily, day 10
Excerpt: (§1) Animals were divided into 5 experimental groups.
Their colons were removed and their length and weight measured after exclusion of the caecum.
(§2) Two sections (proximal and distal) of colon were taken from each animal and preserved in neutral buffered formalin for subsequent histological analysis (haematoxylin and eosin staining) according to the following scoring system:
Two sections (proximal and distal) of colon were taken from each animal, processed for histological analysis (haematoxylin and eosin staining) and scored by a blind observer according to the histological scoring system described above.

[2] = tested on: DSS-induced colitis in the mouse; experiment: 10-day DSS-induced colitis, colon histological score (Example 6)
Description: as §2
(§3) Example 6 was carried out essentially as described in Example 5. The differences are indicated below.
(§4) Animals were divided into 9 experimental groups.
Two sections (proximal and distal) of colon were taken from each animal, processed for histological analysis (haematoxylin and eosin staining), and scored by a blind observer according to the scoring system described above.

[3] = tested on: DSS-induced colitis in the mouse; experiment: 10-day DSS-induced colitis, Disease Activity Index (Example 5); settings: 1 mg/kg p.o. daily
Description: as §1
Colitis was induced in mice by supplementing their drinking water with DSS 2% for 7 days.
(§5) Daily clinical assessment of DSS-treated animals was carried out, with the calculation of a validated clinical Disease Activity Index (DAI) ranging from 0 to 4 according to the following parameters: stool consistency, presence or absence of rectal bleeding and weight loss:
Bodyweight loss was calculated as the percent difference between the original bodyweight (Day 1) and the actual bodyweight on each experimental day (2-10).
The appearance of diarrhoea is defined as mucus/faecal material adherent to anal fur. Rectal bleeding is defined as diarrhoea containing visible blood/mucus or gross rectal bleeding. The maximum score of the DAI each day is 12.

[4] = tested on: DSS-induced colitis in the mouse; experiment: 10-day DSS-induced colitis, Disease Activity Index (Example 6); design: key: clinical Disease Activity Index (stool, bleeding, weight loss)
Description: as §5, §3, §4
The animals in group F received one dose i.v. and another dose s.c. (12 hours after the i.v. dose) of the corresponding test item for 10 consecutive days.
The animals in group G received one dose every two days of the corresponding test item for 10 consecutive days.
Methylprednisolone was given orally at a dose of 1 mg/kg (group H) and 10 mg/kg (group J) in a dosing volume of 5 ml/kg body weight, once daily for 10 consecutive days.

C[C@H]1C[C@@H]2[C@H]([C@@H](O)C[C@@]3(C)[C@H]2CC[C@]3(O)C(=O)COC(=O)CCC(=O)O)[C@@]2(C)C=CC(=O)C=C12 [Methylprednisolone 21-hemisuccinate, reference compound]
Histology Score Distal Colon [1]: 3.70
Histology Score Proximal Colon [1]: 2.80*
Histology Score Proximal Colon ([1]; listed as prednisolone): 2.8±0.5
Histology Score Distal Colon, mean ([2]; Group H, 1 mg/kg p.o.): 3.00***
Histology Score Proximal Colon, mean ([2]; Group H, 1 mg/kg p.o.): 1.40
Histology Score Distal Colon, mean ([2]; Group J, 10 mg/kg p.o.): 2.70***
Histology Score Proximal Colon, mean ([2]; Group J, 10 mg/kg p.o.): 1.40
DAI score ([3]; Day 1): 0.00
DAI score ([3]; Day 2): 0.10
DAI score ([3]; Day 3): 0.00
DAI score ([3]; Day 4): 2.60
DAI score ([3]; Day 5): 2.50
DAI score ([3]; Day 6): 2.60
DAI score ([3]; Day 7): 3.10
DAI score ([3]; Day 8): 2.50*
DAI score ([3]; Day 9): 3.80*
DAI score ([3]; Day 10): 4.90**
DAI score, mean ([4]; Group H, 1 mg/kg p.o., Day 1): 0.00
DAI score, mean ([4]; Group H, 1 mg/kg p.o., Day 2): 0.50
DAI score, mean ([4]; Group H, 1 mg/kg p.o., Day 3): 0.50
DAI score, mean ([4]; Group H, 1 mg/kg p.o., Day 4): 0.40
DAI score, mean ([4]; Group H, 1 mg/kg p.o., Day 5): 1.10
DAI score, mean ([4]; Group H, 1 mg/kg p.o., Day 6): 3.80
DAI score, mean ([4]; Group H, 1 mg/kg p.o., Day 7): 5.90
DAI score, mean ([4]; Group H, 1 mg/kg p.o., Day 8): 6.40
DAI score, mean ([4]; Group H, 1 mg/kg p.o., Day 9): 5.60*
DAI score, mean ([4]; Group H, 1 mg/kg p.o., Day 10): 5.60*
DAI score, mean ([4]; Group J, 10 mg/kg p.o., Day 1): 0.00
DAI score, mean ([4]; Group J, 10 mg/kg p.o., Day 2): 0.30
DAI score, mean ([4]; Group J, 10 mg/kg p.o., Day 3): 0.70
DAI score, mean ([4]; Group J, 10 mg/kg p.o., Day 4): 0.80
DAI score, mean ([4]; Group J, 10 mg/kg p.o., Day 5): 1.30
DAI score, mean ([4]; Group J, 10 mg/kg p.o., Day 6): 2.00
DAI score, mean ([4]; Group J, 10 mg/kg p.o., Day 7): 3.20**
DAI score, mean ([4]; Group J, 10 mg/kg p.o., Day 8): 4.80**
DAI score, mean ([4]; Group J, 10 mg/kg p.o., Day 9): 5.20*
DAI score, mean ([4]; Group J, 10 mg/kg p.o., Day 10): 4.00***
